# Values quoted from earlier work, collected in patent publication US20240050502A1, “AMANITA MUSCARIA COMPOUNDS” (priority 2020, published 2024).
# What was measured:
# [1] = test system: inflammatory pain induced by formalin; conditions: mice
# monkey = conditions: quantity many times that which would cause poisoning by ingestion of Amanita muscaria in the human
# mice = conditions: for LD50: intravenous administration in mice
# [2] = in vivo
compound,measurement,setting,value
fucomannogalactan,inflammatory pain induced by formalin,[1],significantly reduced
β(1→6)-branched (1→3)-β-d-glucan,antitumor activity against sarcoma 180 tumors,sarcoma 180 tumors; mice,significant antitumor activity
same,antitumor effect when mixed with mitomycin C,sarcoma 180 tumors; mixed with the chemotherapy drug mitomycin C,greater than that of mitomycin C alone
C[C@@H]1O[C@H](C[N+](C)(C)C)C[C@H]1O [muscarine],activity by mouth,monkey,inactive
NCc1cc(=O)[nH]o1 [muscimol],LD50,mice,5.62 mg/kg
same,dose at which central nervous system intoxication occurs,[2],6.0 mg
N[C@H](C(=O)O)c1cc(=O)[nH]o1 [ibotenic acid],LD50,mice,15 mg/kg
same,oral LD50,"mice; oral, mice",38 mg/kg
same,minimum dose needed to obtain psychedelic effects,[2],30 to 60 mg
